According to patent US10836734B2, “Spiroquinone derivative compound, production method thereof, and pharamaceutical composition for preventing or treating neurological disorders which contains same as active ingredient” (GACHON UNIVERSITY OF INDUSTRY-ACADEMIC COOPERATION …, priority 2016, dated 2020):

What was measured:
[1] = target: acetylcholine esterase (eeAChE, EC 3.1.1.7) (Electrophorus electricus, UniProt O42275); assay: Acetylcholine esterase inhibition activity (ACh quantification colorimetric assay kit); format: biochemical; conditions: read-out: Residual activity of acetylcholine esterase (%); for remaining activity at 10 µM: 10 μM compound; for remaining activity at 30 µM: 30 μM compound
Chain of acetylcholine esterase (eeAChE, EC 3.1.1.7) (O42275 24-633): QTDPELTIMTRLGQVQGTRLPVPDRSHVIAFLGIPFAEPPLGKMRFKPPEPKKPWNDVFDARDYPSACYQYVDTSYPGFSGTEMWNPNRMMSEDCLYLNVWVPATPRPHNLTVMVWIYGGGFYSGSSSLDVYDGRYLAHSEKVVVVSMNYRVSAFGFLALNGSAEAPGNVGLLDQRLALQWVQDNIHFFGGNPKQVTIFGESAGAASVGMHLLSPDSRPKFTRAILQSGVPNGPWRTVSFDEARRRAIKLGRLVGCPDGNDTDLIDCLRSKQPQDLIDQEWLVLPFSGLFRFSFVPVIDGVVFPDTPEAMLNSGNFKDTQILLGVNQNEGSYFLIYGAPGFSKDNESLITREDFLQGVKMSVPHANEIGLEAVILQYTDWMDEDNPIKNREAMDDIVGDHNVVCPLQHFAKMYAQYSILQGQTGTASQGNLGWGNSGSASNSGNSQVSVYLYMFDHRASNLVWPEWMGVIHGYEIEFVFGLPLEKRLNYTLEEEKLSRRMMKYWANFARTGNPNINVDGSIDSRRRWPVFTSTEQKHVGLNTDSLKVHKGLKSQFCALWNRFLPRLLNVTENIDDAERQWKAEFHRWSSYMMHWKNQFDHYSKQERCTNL
Procedure: Particularly, a quantitative kit (ACh quantification colorimetric assay kit from BioVision) was prepared in order to quantify acetylcholine esterase (eeAChE, EC 3.1.1.7) and acetylcholine chloride (ACh) of Electrophorus electricus and acetylcholine. To measure the enzyme inhibition activity of the compound of the example of the invention, the following experiment was performed based on the standardized method of the manufacturer of the Ach kit (Draczkowski, P. et al. Bba-Gen Subjects 1860, 967-974, doi:10.1016/j.bbagen.2015.11.006 (2016)).
First, acetylcholine esterase (eeAChE, EC 3.1.1.7) was dissolved in […] Tris-HCL buffer at the concentration of 5 μM. Acetylcholine chloride was dissolved in 20 mM Tris-HCL buffer, resulting in the preparation of a Tris-HCL aqueous solution containing 10 μM acetylcholine chloride. The compound of the example was prepared in different concentrations of 10 μM and 30 μM. The prepared acetylcholine chloride solution and the compound solution were mixed in 20 μM acetylcholine esterase. 20 minutes and 30 minutes after mixing, the color change of the quantitative kit was measured at 570 nm in order to evaluate the inhibitory effect of the compound particularly to inhibit acetylcholine esterase that decomposes acetylcholine into choline.
All the experiments were repeated at least twice, from which the mean values and the standard deviations were calculated.

[2] = test system: murine microglial BV-2 cells; assay: Quantification of nitrite generation in LPS treated nerve cell line; format: cell-based; conditions: Mus musculus; LPS treated BV-2 cells; FIG. 5; read-out: IC50 for nitric oxide
Procedure: Particularly, in order to quantify the nitrite generation in the LPS treated nerve cell line, nitrite generated from nitric oxide secreted therein was quantified. With the quantified nitrite, the inhibition of microglial activation and the neuron protection effect thereby were examined. The nerve cell line (BV2) was treated with LPS ([…]), and then treated with the compound of the present invention at different concentrations of 0.01 μM, 0.1 μM and 1 μM, or 1 μM, 5 μM and 10 μM (Con: DMSO treated group (not treated with the compound of the invention and LPS), LPS: LPS treated group ([…])).
Further, IC50 was calculated from the quantification of nitric oxide measured by concentration gradient in FIGS. 1 and 3, and the results are shown in FIG. 5.

**Q.** Which remaining activity at 10 µM [1] does the source give for `CC1COC2(C=CC(=O)C=C2)N(c2ccccc2)C1=O` (stereo not drawn) [Example 2, 3-methyl-5-phenyl-1-oxa-5-azaspiro[5,5]undeca-7,10-diene-4,9-dione] here?
**A.** 29.7%

**Q.** What about the remaining activity at 30 µM [1] of the same compound?
**A.** 7.03%

**Q.** For `C=CCC1COC2(C=CC(=O)C=C2)N(c2ccccc2)C1=O` (stereo not drawn) [Example 3, 3-allyl-5-phenyl-1-oxa-5-azaspiro[5,5]undeca-7,10-diene-4,9-dione], which remaining activity at 10 µM [1] is on record?
**A.** 30.3%

**Q.** And the remaining activity at 30 µM [1]?
**A.** -2.03%

**Q.** What does the source list for `O=C1C=CC2(C=C1)OCC(Cc1ccccc1)C(=O)N2c1ccccc1` (stereo not drawn) [Example 6, 3-benzyl-5-phenyl-1-oxa-5-azaspiro[5,5]undeca-7,10-diene-4,9-dione]?
**A.** remaining activity at 10 µM [1]: 40.2%; remaining activity at 30 µM [1]: 6.07%

**Q.** Which remaining activity at 10 µM [1] does the source give for `O=C1C=CC2(C=C1)OCC(Cc1ccc(F)cc1)C(=O)N2c1ccccc1` (stereo not drawn) [Example 7, 3-(4-fluoro-benzyl)-5-phenyl-1-oxa-5-azaspiro[5,5]undeca-7,10-diene-4,9-dione] here?
**A.** 46.7%

**Q.** And the remaining activity at 30 µM [1]?
**A.** 4.74%

**Q.** How did the remaining activity at 10 µM [1] turn out when `O=C1C=CC2(C=C1)OCC(Cc1ccc(Br)cc1)C(=O)N2c1ccccc1` (stereo not drawn) [Example 10, 3-(4-bromo-benzyl)-5-phenyl-1-oxa-5-azaspiro[5,5]undeca-7,10-diene-4,9-dione] was run?
**A.** 27.3%

**Q.** What about the remaining activity at 30 µM [1] of the same compound?
**A.** 12.9%

**Q.** How did the remaining activity at 10 µM [1] turn out when `O=C1C=CC2(C=C1)OCC(Cc1ccc(C(F)(F)F)cc1)C(=O)N2c1ccccc1` (stereo not drawn) [Example 11, 3-(4-trifluoromethyl-benzyl)-5-phenyl-1-oxa-5-azaspiro[5,5]undeca-7,10-diene-4,9-dione] was run?
**A.** 69.4%

**Q.** What about the remaining activity at 30 µM [1] of the same compound?
**A.** 22.1%

**Q.** Which IC50 [2] does the source give for `O=C1C=CC2(C=C1)OCC(Cc1cc(C(F)(F)F)cc(C(F)(F)F)c1)C(=O)N2c1ccccc1` (stereo not drawn) [Example 14, 3-(3,5-ditrifluoromethyl-benzyl)-5-phenyl-1-oxa-5-azaspiro[5,5]undeca-7,10-diene-4,9-dione] here?
**A.** ~300 nM

**Q.** How did the remaining activity at 10 µM [1] turn out when `O=C1C=CC2(C=C1)OCC(Cc1ccccc1)C(=O)N2c1cccnc1` (stereo not drawn) [Example 19, 3-benzyl-5-(pyridine-3-yl)-1-oxa-5-azaspiro[5,5]undeca-7,10-diene-4,9-dione] was run?
**A.** 66.1%

**Q.** What about the remaining activity at 30 µM [1] of the same compound?
**A.** 8.07%

**Q.** For `CC1COC2(C=CC(=O)C(F)=C2)N(c2ccccc2)C1=O` (stereo not drawn) [Example 22, 3-methyl-8-fluoro-5-phenyl-1-oxa-5-azaspiro[5,5]undeca-7,10-diene-4,9-dione], which remaining activity at 10 µM [1] is on record?
**A.** 51.6%

**Q.** What about the remaining activity at 30 µM [1] of the same compound?
**A.** 2.47%

**Q.** With `C=CCC1COC2(C=CC(=O)C(F)=C2)N(c2ccccc2)C1=O` (stereo not drawn) [Example 23, 3-allyl-8-fluoro-5-phenyl-1-oxa-5-azaspiro[5,5]undeca-7,10-diene-4,9-dione] as the compound, how does the remaining activity at 10 µM [1] read?
**A.** 38.1%

**Q.** What about the remaining activity at 30 µM [1] of the same compound?
**A.** 5.64%

**Q.** `O=C1C=CC2(C=C1F)OCC(Cc1ccccc1)C(=O)N2c1ccccc1` (stereo not drawn) [Example 24, 3-benzyl-8-fluoro-5-phenyl-1-oxa-5-azaspiro[5,5]undeca-7,10-diene-4,9-dione] was tested. Which remaining activity at 10 µM [1] did it give?
**A.** 35.6%

**Q.** And the remaining activity at 30 µM [1]?
**A.** 8.89%

**Q.** With `CC1=CC2(C=CC1=O)OCC(C)C(=O)N2c1ccccc1` (stereo not drawn) [Example 25, 3,8-dimethyl-5-phenyl-1-oxa-5-azaspiro[5,5]undeca-7,10-diene-4,9-dione] as the compound, how does the remaining activity at 10 µM [1] read?
**A.** 20.9%

**Q.** What about the remaining activity at 30 µM [1] of the same compound?
**A.** 8.15%

**Q.** Which results are given for `CC1=CC2(C=CC1=O)OCC(Cc1ccccc1)C(=O)N2c1ccccc1` (stereo not drawn) [Example 28, 3-benzyl-8-methyl-5-phenyl-1-oxa-5-azaspiro[5,5]undeca-7,10-diene-4,9-dione]?
**A.** remaining activity at 10 µM [1]: 55.4%; remaining activity at 30 µM [1]: 3.08%

**Q.** For `CN1C(=O)C(Cc2ccccc2)COC12C=CC(=O)C=C2` (stereo not drawn) [Example 33, 3-benzyl-5-methyl-1-oxa-5-azaspiro[5,5]undeca-7,10-diene-4,9-dione], which remaining activity at 10 µM [1] is on record?
**A.** 50.5%

**Q.** What about the remaining activity at 30 µM [1] of the same compound?
**A.** 2.08%
